# Measured values: US9932637B2, “Genetic polymorphisms associated with cardiovascular disorders and drug response, methods of detection and uses thereof” (CELERA CORPORATION, priority 2003, dated 2018)
# Tested on: patients with prior myocardial infarction (CARE study)
# Assay: CARE: association of SNPs with pravastatin treatment in cardiovascular events prevention (logistic regression, odds ratio pravastatin vs placebo by genotype; Table 8)
# Type: in vivo, human
# Details: for Prava vs. Placebo Odds Ratio, 0 Rare Alleles / Prava vs. Placebo Odds Ratio, 1 Rare Alleles / Prava vs. Placebo Odds Ratio, 2 Rare Alleles: SELP hCV11975296; for Prava vs. Placebo Odds Ratio, 0 Rare Alleles / Prava vs. Placebo Odds Ratio, 1 Rare Alleles / Prava vs. Placebo Odds Ratio, 2 Rare Alleles / Odds ratio pravastatin vs placebo: All Patients; for Any Report of Stroke During CARE, n/total (%) / Fatal/Non-fatal Cerebrovascular Disease, n/total (%): SERPINA1 hCV1260328, All Patients; for Coronary Artery Bypass Graft, n/total (%): SERPINA1 hCV25640505, All Patients; for Fatal/Nonfatal Atherosclerotic CV Disease, n/total (%): SERPINB6 hCV16190893, All Patients; for Fatal CHD/Definite Non-fatal MI, n/total (%): TAP1 hCV549926, All Patients
# Description: In order to identify genetic markers associated with acute coronary events (e.g. MI, stroke, unstable angina, congestive heart failure, etc.) or response to statin treatment for the prevention of coronary events, samples from the Cholesterol and Recurrent Events (CARE) study (a randomized multicentral double-blinded trial on secondary prevention of acute coronary events with pravastatin) (Sacks et al., 1991, Am. J. Cardiol. 68: 1436-1446) were genotyped. A well-documented myocardial infarction (MI) was one of the enrollment criteria for entry into the CARE study. Patients were enrolled in the CARE trial from 80 participating study centers. […] Patients were randomized to receive either 40 mg of pravastatin once daily or a matching placebo. The primary endpoint of the trial was death from coronary heart disease and the median duration of follow-up was 5.0 years (range, 4.0 to 6.2 years). […] Secondary endpoints of other related cardiovascular or metabolic disease events, and changes in clinical variables were also recorded in pravastatin-treated and placebo groups. All individuals included in the study had signed a written informed consent form and the study protocol was approved by the respective Institutional Review Boards (IRBs).
# For genotyping SNPs in CARE patient samples, DNA was extracted from blood samples using conventional DNA extraction methods such as the QIA-amp kit from Qiagen. Genotypes were obtained on an ABI PRISM® 7900HT Sequence Detection PCR system (Applied Biosystems, Foster City, Calif.) by kinetic allele-specific PCR, similar to the method described by Germer et al. (Germer S., Holland M. J., Higuchi R. 2000, Genome Res. 10: 258-266).
# Statistical analysis for association of SNPs with pravastatin treatment in cardiovascular events prevention (Table 8) was carried out using an overall logistic regression model that included an intercept, a parameter for the effect of a genotype containing two rare alleles versus a genotype containing no rare alleles, a parameter for the effect of a genotype containing one rare allele versus a genotype containing no rare alleles, a parameter for the effect of use of pravastatin versus the use of placebo, and parameters for the interaction effects between SNP genotypes and pravastatin use. The test of the overall model is a chi-square test with two degrees of freedom for analyses containing all three genotypes, and one degree of freedom for analyses containing two genotypes.
# Effect sizes were estimated through odds ratios (pravastatin group versus placebo) for carriers of each genotype (groups of 0, 1, and 2 minor allele carriers). The effect was considered to be significant if p-value for testing whether any of the interactions between SNP genotypes and pravastatin use were <0.05. […] Odds ratios less than one indicate that the specific SNP allele has a protective effect and odds ratios greater than one indicate that the specific SNP allele has an adverse effect.
# [1] = SELP hCV11975296, All Patients, 2 Rare Alleles, Prava arm
# [2] = Coronary Artery Bypass or Revascularization
# [3] = Hosp. for Cardiovascular Disease
# [4] = SN hCV25623265, All Patients, 0 Rare Alleles, Prava arm
# [5] = SN hCV25623265, All Patients, 1 Rare Allele, Prava arm
# [6] = SN hCV25623265, All Patients, 2 Rare Alleles, Prava arm
# [7] = TGFB1 hCV8708473, All Patients, 0 Rare Alleles, Prava arm
smiles,measurement,setting,value
CC[C@H](C)C(=O)O[C@H]1C[C@H](O)C=C2C=C[C@H](C)[C@H](CC[C@@H](O)C[C@@H](O)CC(=O)O)[C@H]21 [pravastatin],"Coronary Artery Bypass or Revascularization, n/total (%)",[1],(20.3%)
same,"Hosp. for Cardiovascular Disease, n/total (%)",[1],(49.2%)
same,"Hosp. for Unstable Angina, n/total (%)",[1],(27.1%)
same,"Prava vs. Placebo Odds Ratio, 0 Rare Alleles",[2],0.68
same,"Prava vs. Placebo Odds Ratio, 1 Rare Alleles",[2],0.63
same,"Prava vs. Placebo Odds Ratio, 2 Rare Alleles",[2],5.74
same,"Prava vs. Placebo Odds Ratio, 0 Rare Alleles",[3],0.81
same,"Prava vs. Placebo Odds Ratio, 1 Rare Alleles",[3],0.62
same,"Prava vs. Placebo Odds Ratio, 2 Rare Alleles",[3],1.71
same,"Prava vs. Placebo Odds Ratio, 0 Rare Alleles",Hosp. for Unstable Angina,0.82
same,"Prava vs. Placebo Odds Ratio, 1 Rare Alleles",Hosp. for Unstable Angina,0.69
same,"Prava vs. Placebo Odds Ratio, 2 Rare Alleles",Hosp. for Unstable Angina,5.45
same,"Any Report of Stroke During CARE, n/total (%)","0 Rare Alleles, Prava arm",(2.9%)
same,"Fatal/Non-fatal Cerebrovascular Disease, n/total (%)","0 Rare Alleles, Prava arm",(5.9%)
same,"Any Report of Stroke During CARE, n/total (%)","1 Rare Allele, Prava arm",(1.2%)
same,"Fatal/Non-fatal Cerebrovascular Disease, n/total (%)","1 Rare Allele, Prava arm",(2.8%)
same,"Any Report of Stroke During CARE, n/total (%)","2 Rare Alleles, Prava arm",(1.4%)
same,"Fatal/Non-fatal Cerebrovascular Disease, n/total (%)","2 Rare Alleles, Prava arm",(2.7%)
same,Odds ratio pravastatin vs placebo,"SERPINA1 hCV1260328, Any Report of Stroke During CARE, 0 rare alleles",0.87
same,Odds ratio pravastatin vs placebo,"SERPINA1 hCV1260328, Any Report of Stroke During CARE, 1 rare allele",0.23
same,Odds ratio pravastatin vs placebo,"SERPINA1 hCV1260328, Any Report of Stroke During CARE, 2 rare alleles",0.21
same,Odds ratio pravastatin vs placebo,"SERPINA1 hCV1260328, Fatal/Non-fatal Cerebrovascular Disease, 0 rare alleles",1.03
same,Odds ratio pravastatin vs placebo,"SERPINA1 hCV1260328, Fatal/Non-fatal Cerebrovascular Disease, 1 rare allele",0.36
same,Odds ratio pravastatin vs placebo,"SERPINA1 hCV1260328, Fatal/Non-fatal Cerebrovascular Disease, 2 rare alleles",0.17
same,"Coronary Artery Bypass Graft, n/total (%)","0 Rare Alleles, Prava arm",(6.1%)
same,"Coronary Artery Bypass Graft, n/total (%)","1 Rare Allele, Prava arm",(9.0%)
same,"Coronary Artery Bypass Graft, n/total (%)","2 Rare Alleles, Prava arm",(7.4%)
same,"Fatal/Nonfatal Atherosclerotic CV Disease, n/total (%)","0 Rare Alleles, Prava arm",(34.9%)
same,"Fatal/Nonfatal Atherosclerotic CV Disease, n/total (%)","1 Rare Allele, Prava arm",(32.4%)
same,"Fatal/Nonfatal Atherosclerotic CV Disease, n/total (%)","2 Rare Alleles, Prava arm",(29.7%)
same,"Coronary Artery Bypass or Revascularization, n/total (%)",[4],(13.0%)
same,"Definite Nonfatal MI, n/total (%)",[4],(8.2%)
same,"Fatal CHD/Definite Nonfatal MI, n/total (%)",[4],(9.7%)
same,"Percutaneous Transluminal Coronary Angioplas, n/total (%)",[4],(7.5%)
same,"Total Coronary Heart Disease Events, n/total (%)",[4],(27.2%)
same,"Coronary Artery Bypass or Revascularization, n/total (%)",[5],(14.9%)
same,"Definite Nonfatal MI, n/total (%)",[5],(7.6%)
same,"Fatal CHD/Definite Nonfatal MI, n/total (%)",[5],(10.8%)
same,"Percutaneous Transluminal Coronary Angioplas, n/total (%)",[5],(9.5%)
same,"Total Coronary Heart Disease Events, n/total (%)",[5],(30.5%)
same,"Coronary Artery Bypass or Revascularization, n/total (%)",[6],(15.0%)
same,"Definite Nonfatal MI, n/total (%)",[6],(2.8%)
same,"Fatal CHD/Definite Nonfatal MI, n/total (%)",[6],(4.6%)
same,"Percutaneous Transluminal Coronary Angioplas, n/total (%)",[6],(9.8%)
same,"Total Coronary Heart Disease Events, n/total (%)",[6],(28.2%)
same,"Fatal CHD/Definite Non-fatal MI, n/total (%)","0 Rare Alleles, Prava arm",(10.0%)
same,"Fatal CHD/Definite Non-fatal MI, n/total (%)","1 Rare Allele, Prava arm",(8.2%)
same,"Fatal CHD/Definite Non-fatal MI, n/total (%)","2 Rare Alleles, Prava arm",(4.1%)
same,Odds ratio pravastatin vs placebo,"TAP1 hCV549926, Fatal CHD/Definite Non-fatal MI, 0 rare alleles",0.85
same,Odds ratio pravastatin vs placebo,"TAP1 hCV549926, Fatal CHD/Definite Non-fatal MI, 1 rare allele",0.54
same,Odds ratio pravastatin vs placebo,"TAP1 hCV549926, Fatal CHD/Definite Non-fatal MI, 2 rare alleles",0.16
same,"Any Report of Stroke Prior to or During CARE, n/total (%)",[7],(7.5%)
same,"Cardiovascular Mortality, n/total (%)",[7],(5.5%)
same,"Fatal Atherosclerotic Cardiovascular Disease, n/total (%)",[7],(5.4%)
same,"Fatal Coronary Heart Disease, n/total (%)",[7],(5.1%)
same,"Fatal/Non-fatal Atherosclerotic CV Disease, n/total (%)",[7],(37.2%)
same,"Total Coronary Heart Disease Events, n/total (%)",[7],(32.1%)
same,"Total Mortality, n/total (%)",[7],(7.2%)
